Measurements reported in PubChem BioAssay AID2060489 (Molecular Pharmacology Branch, DTP, NCI, 2025).
pIC50: −log10 of the molar value.

Tested on: 922993-354-T-J3-PDC complex spheroids, viability
Experiment: Anticancer human tumor 922993-354-T-J3-PDC patient-derived endometrial carcinoma cell line growth inhibition [GQUAD]
Settings: for pIC50: curve of first compound; for viability, T/C: stronger effect = lower value
Excerpt: DNA G-quadruplex Stabilizer Agents in Combinations in Complex Spheroids
A high-throughput screen of multi-cell type tumor spheroids was designed to identify active combinations of DNA G-quadruplex stabilizer agents and targeted small molecules. Complex spheroids include a stromal component modeled by human endothelial cells (HUVEC) and fibroblasts modeled by human mesenchymal stem cells (MSCs). The concentration ranges selected for each drug and investigational agent were based upon clinically achievable concentrations if the clinical Cmax of the agent was known.
Compounds. The drugs and investigational agents: pidnarulex (CX-5461; NSC782164), APTO-253 (NSC789042), BRACO-19 (NSC847499), peposertib (NSC802822), ceralasertib (NSC780249), elimusertib (NSC800525), camonsertib (NSC841442), AZD-1390 (NSC803789), olaparib (NSC753686), talazoparib (NSC767125), ART-558 (NSC835418), sotorasib (NSC818433), MRTX-1133 (NSC836407), SN-38 (NSC673596), topotecan (NSC609699), etoposide (NSC141540), doxorubicin (NSC123127), gemcitabine (NSC613327), 5-fluorouracil (NSC19893), paclitaxel (NSC125973), vemurafenib (NSC761431), panobinostat (NSC761190), R-306465 (JNJ-16241199; NSC773264), adavosertib (NSC754352), TP-3654 (NSC805149), carboplatin (NSC241240), KSQ-4279 (NSC840948), and staurosporine (NSC755774) were obtained from the National Cancer Institute (NCI) Developmental Therapeutics Program Chemical Repository (34). The FDA-approved anticancer drug set is available from the NCI Developmental Therapeutics Program. […] The stock solutions were prepared in dimethyl sulfoxide (DMSO, Sigma-Aldrich, St. Louis, MO, cat. D2650) at 800-fold the tested concentration and stored at -70 degrees C prior to their use. All drugs and investigational agents were tested over a range starting from a high concentration at or near the clinical Cmax and decreasing in half-log increments. If the clinical Cmax for an agent had not been determined, the highest concentration tested was 10 microM.
2.3 Cell Culture. All cells were maintained in an incubator at 37 degrees C and 5% CO2 with 95% humidity. The PDC lines were cultured according to standard operating procedures established by the NCI PDMR. All PDCs were thawed and cultured in Matrigel-coated flasks prepared with a working solution of 1X Ham's F-12 nutrient mix, without supplementation (Invitrogen, cat. 11765054), 100 U/mL penicillin-streptomycin (Invitrogen, cat. 15140122), and 2.5% Matrigel (Corning Inc., cat. 354248) for the first three passages. The 857933-349-R-J2-PDC line was cultured in 6C/Colon 1B media, which includes advanced DMEM/F-12 (Thermo Fisher Scientific, cat. 12634028), 10 mM HEPES (Thermo Fisher Scientific, cat. 15630080), 1X GlutaMAX supplement (Thermo Fisher Scientific, cat. 35050061), 0.1 mg/mL primocin (InvivoGen, cat. ant-pm-2), 10% defined fetal bovine serum, heat inactivated (HyClone Laboratories Inc., cat. SH30070.03HI), 50% L-WRN conditioned media (ATCC, cat. CRL-3276), 1.25 mM N-Acetyl-L-cysteine (Sigma-Aldrich, cat. A9165), 10 mM nicotinamide (Sigma-Aldrich, cat. N0636), 1X B-27 supplement (Thermo Fisher Scientific, cat. 17504044), 1X N-2 supplement (Thermo Fisher Scientific, cat. 17502048), 10 microM Y-27632 dihydrochloride (Tocris Bioscience, cat. 1254), and 50 ng/mL human EGF recombinant protein (Thermo Fisher Scientific, cat. PHG0311). The 485176-168-R4-J1-PDC line was cultured in Panc media, which includes all 6C/Colon 1B media components plus 100 ng/mL human FGF-10 (Thermo Fisher Scientific, cat. 100-26), 500 nM SB-431542 (Selleckchem, cat. S1067), and gastrin (Tocris, cat. 3006).
[…]

[1] = second compound 0.0316 µM, first compound 0.0316 µM
[2] = second compound 0.0316 µM, first compound 0.316 µM
[3] = second compound 0.1 µM, first compound 0.0316 µM
[4] = second compound 0.1 µM, first compound 0.316 µM
[5] = second compound 0.316 µM, first compound 0.0316 µM
[6] = second compound 0.316 µM, first compound 0.316 µM
[7] = second compound 1 µM, first compound 0.0316 µM
[8] = second compound 1 µM, first compound 0.316 µM
[9] = second compound 3.16 µM, first compound 0.0316 µM
[10] = second compound 3.16 µM, first compound 0.316 µM
[11] = second compound 10 µM, first compound 0.0316 µM
[12] = second compound 10 µM, first compound 0.316 µM
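Further: spheroids exposed to compounds for seven days.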
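Wherever viability, T/C is given: 100% = DMSO vehicle control viability.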

COc1ncnc(C2CC2)c1-c1ncc2cnn(Cc3ccc(-c4nc(C(F)(F)F)cn4C(C)C)cc3)c2n1 + Cc1cnc(CNC(=O)c2c(=O)c3ccc(N4CCCN(C)CC4)nc3n3c2sc2ccccc23)cn1
pIC50 (second compound 0.0316 µM): < 5.00
pIC50 (second compound 0.1 µM): < 5.00
pIC50 (second compound 0.316 µM): > 7.50
pIC50 (second compound 1 µM): > 7.50
pIC50 (second compound 3.16 µM): > 7.50
pIC50 (second compound 10 µM): 5.49
viability, T/C [1]: 98.1%
viability, T/C (second compound 0.0316 µM, first compound 0.1 µM): 72.7%
viability, T/C [2]: 80.5%
viability, T/C (second compound 0.0316 µM, first compound 1 µM): 48.3%
viability, T/C (second compound 0.0316 µM, first compound 3.16 µM): 59%
viability, T/C (second compound 0.0316 µM, first compound 10 µM): 63.4%
viability, T/C [3]: 67.8%
viability, T/C (second compound 0.1 µM, first compound 0.1 µM): 44.2%
viability, T/C [4]: 45.6%
viability, T/C (second compound 0.1 µM, first compound 1 µM): 44.3%
viability, T/C (second compound 0.1 µM, first compound 3.16 µM): 51.4%
viability, T/C (second compound 0.1 µM, first compound 10 µM): 70.4%
viability, T/C [5]: 41%
viability, T/C (second compound 0.316 µM, first compound 0.1 µM): 34.5%
viability, T/C [6]: 41.8%
viability, T/C (second compound 0.316 µM, first compound 1 µM): 49.3%
viability, T/C (second compound 0.316 µM, first compound 3.16 µM): 51.3%
viability, T/C (second compound 0.316 µM, first compound 10 µM): 52.7%
viability, T/C [7]: 44.5%
viability, T/C (second compound 1 µM, first compound 0.1 µM): 44.6%
viability, T/C [8]: 41.6%
viability, T/C (second compound 1 µM, first compound 1 µM): 46.3%
viability, T/C (second compound 1 µM, first compound 3.16 µM): 54.9%
viability, T/C (second compound 1 µM, first compound 10 µM): 67.1%
viability, T/C [9]: 40.9%
viability, T/C (second compound 3.16 µM, first compound 0.1 µM): 41.7%
viability, T/C [10]: 50.3%
viability, T/C (second compound 3.16 µM, first compound 1 µM): 49.2%
viability, T/C (second compound 3.16 µM, first compound 3.16 µM): 43%
viability, T/C (second compound 3.16 µM, first compound 10 µM): 55.7%
viability, T/C [11]: 48.6%
viability, T/C (second compound 10 µM, first compound 0.1 µM): 47.7%
viability, T/C [12]: 52.6%
viability, T/C (second compound 10 µM, first compound 1 µM): 49%
viability, T/C (second compound 10 µM, first compound 3.16 µM): 53.3%
viability, T/C (second compound 10 µM, first compound 10 µM): 40.1%

Cn1ncnc1[C@H]1c2n[nH]c(=O)c3cc(F)cc(c23)N[C@@H]1c1ccc(F)cc1 + Cc1cnc(CNC(=O)c2c(=O)c3ccc(N4CCCN(C)CC4)nc3n3c2sc2ccccc23)cn1
pIC50 (second compound 0.0316 µM): < 6.50
pIC50 (second compound 0.1 µM): 7.14
pIC50 (second compound 0.316 µM): 8.14
pIC50 (second compound 1 µM): > 9.00
pIC50 (second compound 3.16 µM): > 9.00
pIC50 (second compound 10 µM): > 9.00
viability, T/C (second compound 0.0316 µM, first compound 0.000999 µM): 93.2%
viability, T/C (second compound 0.0316 µM, first compound 0.00316 µM): 78.7%
viability, T/C (second compound 0.0316 µM, first compound 0.00999 µM): 76.6%
viability, T/C [1]: 72.8%
viability, T/C (second compound 0.0316 µM, first compound 0.0999 µM): 72.3%
viability, T/C [2]: 59.9%
viability, T/C (second compound 0.1 µM, first compound 0.000999 µM): 65.4%
viability, T/C (second compound 0.1 µM, first compound 0.00316 µM): 69.2%
viability, T/C (second compound 0.1 µM, first compound 0.00999 µM): 58.3%
viability, T/C [3]: 50.7%
viability, T/C (second compound 0.1 µM, first compound 0.0999 µM): 52.2%
viability, T/C [4]: 39.3%
viability, T/C (second compound 0.316 µM, first compound 0.000999 µM): 43.5%
viability, T/C (second compound 0.316 µM, first compound 0.00316 µM): 54.2%
viability, T/C (second compound 0.316 µM, first compound 0.00999 µM): 55.6%
viability, T/C [5]: 44.2%
viability, T/C (second compound 0.316 µM, first compound 0.0999 µM): 41.6%
viability, T/C [6]: 32%
viability, T/C (second compound 1 µM, first compound 0.000999 µM): 49.2%
viability, T/C (second compound 1 µM, first compound 0.00316 µM): 53.4%
viability, T/C (second compound 1 µM, first compound 0.00999 µM): 45.9%
viability, T/C [7]: 49.9%
viability, T/C (second compound 1 µM, first compound 0.0999 µM): 50.3%
viability, T/C [8]: 49.6%
viability, T/C (second compound 3.16 µM, first compound 0.000999 µM): 41.9%
viability, T/C (second compound 3.16 µM, first compound 0.00316 µM): 50.1%
viability, T/C (second compound 3.16 µM, first compound 0.00999 µM): 44%
viability, T/C [9]: 49.5%
viability, T/C (second compound 3.16 µM, first compound 0.0999 µM): 49.4%
viability, T/C [10]: 37.2%
viability, T/C (second compound 10 µM, first compound 0.000999 µM): 49%
viability, T/C (second compound 10 µM, first compound 0.00316 µM): 43.6%
viability, T/C (second compound 10 µM, first compound 0.00999 µM): 48.4%
viability, T/C [11]: 49%
viability, T/C (second compound 10 µM, first compound 0.0999 µM): 49.3%
viability, T/C [12]: 41.6%
